Where a name gives a salt, the structure may show the parent alone.
Test system: patient CLL cells
Assay: Apoptosis assay (Hoechst 33342, flow cytometry, 48 h)
Format: cell-based, human
Set-up: unit not given here
Settings: CGS-21680 0 μM
Source text: Blood samples were obtained in heparinized tubes with IRB-approved consent from flow cytometry-confirmed B-CLL patients that were either untreated or for whom at least 1 month had elapsed since chemotherapy. Patients with active infections or other serious medical conditions were not included in this study. Patients with white blood cell counts of less than 15,000/μl by automated analysis were excluded from this study. Whole blood was layered on Ficoll-Hystopaque (Sigma), and peripheral blood mononuclear cells (PBMC) isolated after centrification. […] One million cells were stained with anti-CD5-PE and anti-CD19-PE-Cy5 (Becton Dickenson, Franklin Lakes N.J.). The percentage of B-CLL cells was defined as the percentage of cells doubly expressing CD5 and CDl9, as determined by flow cytometry. […] Compound master plates were diluted 1:50 into complete media to create working compound dilutions. Compound crosses were then created by diluting two working dilution plates 1:10 into each plate of cells. […] Hoechst 33342 (Molecular Probes, Eugene Oreg.) at a final concentration of 0.25 μg/1 mL was added to each well, and the cells incubated at 37° C. for an additional ten minutes before being placed on ice until analysis. Plates were then analyzed on a LSR-II flow cytometer (Becton Dickenson, Franklin Lakes, N.J.) equipped with the High Throughput Sampling (HTS) option in high throughput mode. […] The apoptotic fraction was calculated using FlowJo software (Tree Star Inc., Ashland, Oreg.) after excluding debris by a FSC/SSC gate and subsequently gating for cells that accumulate the Hoechst dye.

Compound: COc1cc2c(cc1OC)-c1cc(=Nc3c(C)cc(C)cc3C)n(C)c(=O)n1CC2 [Trequinsin hydrochloride, 2,3,6,7-tetrahydro-9,10-dimethoxy-3-methyl-2-((2,4,6-trimethylphenyl)imino)-4H-pyrimido(6,1-a)isoquinolin-4-one]
- Induction of apoptosis (Trequinsin 0.22 μM): 8.9
- Induction of apoptosis (Trequinsin 2 μM): 19
- Induction of apoptosis (Trequinsin […]): 9.9

— patent publication US20090047243A1, “COMBINATIONS FOR THE TREATMENT OF B-CELL PROLIFERATIVE DISORDERS” (priority 2007, published 2009)
